Data from patent publication US20040062815A1, “Bdellosomes” (priority 2000, published 2004).

Columns and labels:
[1] = system: trypanosomes; assay: inhibition of the growth of trypanosomes by free daunomycin; type: cell-based, Trypanosoma brucei brucei
[2] = type: physicochemical
Description: In addition, the simplicity of the synthesis of the bdellosomes resulting from the monomolecular structure of the particle is particularly noteworthy.

Question: Which “concentration in the medium causing inhibition of the growth of trypanosomes” value [1] does the source give for `COc1cccc2c1C(=O)c1c(O)c3c(c(O)c1C2=O)C[C@@](O)(C(C)=O)C[C@@H]3O[C@H]1C[C@H](N)[C@H](O)[C@H](C)O1` [daunomycin] here?
Answer: Its value is ≥ 10^−7 mol.

Question: For “polyvinyl(te/o-alanylpolylactide)ate[a=4000, b=100] [bdellosomes]”, which Stability [2] is on record?
Answer: The Stability was “high”.
